Reference: patent publication US7608619B2, “Substituted oxazole compounds with analgesic activity” (Gruenenthal GmbH, priority 2005, dated 2009)

molecular target: T1, human μ-opiate receptor (Homo sapiens, UniProt P35372); experiment: Affinity for the human μ-opiate receptor ([3H]-naloxone displacement, SPA, CHO-K1 membrane preparation); conditions: test substance 1 μmole/l; displacement of 1 nmole/l [3H]-naloxone; percentage inhibition of the specific binding
T1 construct: purchased Nen company, Zaventem, Belgium RB-HOM; host or cells: CHO-K1 cells (membrane preparation)
T1 sequence (P35372 whole entry): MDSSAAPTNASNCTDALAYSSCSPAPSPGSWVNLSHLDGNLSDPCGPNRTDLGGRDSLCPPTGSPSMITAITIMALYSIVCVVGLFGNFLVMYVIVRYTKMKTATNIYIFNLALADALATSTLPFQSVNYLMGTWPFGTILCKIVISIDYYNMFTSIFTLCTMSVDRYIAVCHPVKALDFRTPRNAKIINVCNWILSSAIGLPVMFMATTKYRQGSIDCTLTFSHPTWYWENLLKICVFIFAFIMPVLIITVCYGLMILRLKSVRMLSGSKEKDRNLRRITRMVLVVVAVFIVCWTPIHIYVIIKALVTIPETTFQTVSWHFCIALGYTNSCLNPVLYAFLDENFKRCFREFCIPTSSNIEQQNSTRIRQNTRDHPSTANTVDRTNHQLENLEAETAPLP
In short: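 [3H]-naloxone (1 nmol/l) displacement by SPA with WGA beads, using membranes of CHO-K1 cells expressing the receptor, in 50 mmol/l Tris-HCl with 0.05% azide and 0.06% BSA; 90 min at room temperature. Non-specific binding defined with 25 μmol/l naloxone. Value is % inhibition of specific binding at 1 μmol/l test compound.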

Structure (SMILES)	μ-opioid receptor, % inhibition [1 μM]
CN(C)C(c1cccs1)C1CCC(C(c2nc(Cc3ccccc3)c(N3CCCC3)o2)N2CCN(c3ccc(F)cc3)CC2)CC1 (stereo not shown) [compound 142, [(4.-{(4-benzyl-5-pyrrolidin-1-yl-oxazol-2-yl)-[4-(4-fluorophenyl)-piperazin-1-yl]-me.thyl}-cyclohexyl)-thiophen-2-yl-methyl]-dimethylamine]	85%

same assay, conditions: test substance 1 μmole/l; displacement of 1 nmole/l [3H]-naloxone; percentage inhibition of the specific binding; read-out: μ-opioid receptor, % inhibition [1 μM]

Structure (SMILES)	inhibition at 1 µM
CN(C)C(c1cccc(F)c1)C1CCC(C(c2nc(Cc3ccccc3)c(N3CCCC3)o2)N2CCN(c3ccc(F)cc3)CC2)CC1 (stereo not shown) [compound 122, [(4-{(4-benzyl-5-pyrrolidin-1-yl-oxazol-2-yl)-[4-(4-fluorophenyl)-piperazin-1-yl]-methyl}-cyclohexyl)-(3-fluorophenyl)-methyl]-dimethylamine]	72%
COc1ccc(N2CCN(C(c3nc(Cc4ccccc4)c(N4CCCC4)o3)C3CCC(C(c4cccc(F)c4)N(C)C)CC3)CC2)cc1 (stereo not shown) [compound 123, [(4-{(4-benzyl-5-pyrrolidin-1-yl-oxazol-2-yl)-[4-(4-methoxyphenyl)-piperazin-1-yl]-methyl}-cyclohexyl)-(3-fluorophenyl)-methyl]-dimethylamine]	66%
COc1ccc(N2CCN(C(c3nc(Cc4ccccc4)c(N4CCOCC4)o3)C3CCC(C(c4cccc(F)c4)N(C)C)CC3)CC2)cc1 (stereo not shown) [compound 124, [(4-{(4-benzyl-5-morpholin-4-yl-oxazol-2-yl)-[4-(4-methoxyphenyl)-piperazin-1-yl]-methyl}-cyclohexyl)-(3-fluorophenyl)-methyl]-dimethylamine]	60%
CN(C)C(c1cccc(F)c1)C1CCC(C(c2nc(Cc3ccccc3)c(N3CCCC3)o2)N2CCc3ccccc3C2)CC1 (stereo not shown) [compound 125, [{4-[(4-benzyl-5-pyrrolidin-1-yl-oxazol-2-yl)-(3,4-dihydro-1H-isoquinolin-2-yl)-methyl]-cyclohexyl}-(3-fluorophenyl)-methyl]-dimethylamine]	83%
CN(C)C(c1cccc(F)c1)C1CCC(C(c2nc(Cc3ccccc3)c(N3CCOCC3)o2)N2CCc3ccccc3C2)CC1 (stereo not shown) [compound 126, [{4-[(4-benzyl-5-morpholin-4-yl-oxazol-2-yl)-(3,4-dihydro-1H-isoquinolin-2-yl)-methyl]-cyclohexyl}-(3-fluorophenyl)-methyl]-dimethylamine]	76%
COc1ccc(N2CCN(c3oc(C(C4CCC(C(c5cccc(F)c5)N(C)C)CC4)N4CCc5ccccc5C4)nc3Cc3ccccc3)CC2)cc1 (stereo not shown) [compound 127, [{4-[{4-benzyl-5-[4-(4-methoxy-phenyl)-piperazin-1-yl]-oxazol-2-yl}-(3,4-dihydro-1H-isoquinolin-2-yl)-methyl]-cyclohexyl}-(3-fluorophenyl)-methyl]-dimethylamine]	73%
CC1CN(c2oc(C(C3CCC(C(c4cccc(F)c4)N(C)C)CC3)N3CCc4ccccc4C3)nc2Cc2ccccc2)CC(C)O1 (stereo not shown) [compound 128, [{4-[[4-benzyl-5-(2,6-dimethyl-morpholin-4-yl)-oxazol-2-yl]-(3,4-dihydro-1H-isoquinolin-2-yl)-methyl]-cyclohexyl}-(3-fluorophenyl)-methyl]-dimethylamine]	71%
CN(C)C(c1ccc(Cl)cc1)C1CCC(C(c2nc(Cc3ccccc3)c(N3CCCC3)o2)N2CCOCC2)CC1 (stereo not shown) [compound 129, [{4-[(4-benzyl-5-pyrrolidin-1-yl-oxazol-2-yl)-morpholin-4-yl-methyl]-cyclohexyl}-(4-chlorophenyl)-methyl]-dimethylamine]	75%
CN(C)C(c1ccc(Cl)cc1)C1CCC(C(c2nc(Cc3ccccc3)c(N3CCOCC3)o2)N2CCOCC2)CC1 (stereo not shown) [compound 130, [{4-[(4-benzyl-5-morpholin-4-yl-oxazol-2-yl)-morpholin-4-yl-methyl]-cyclohexyl}-(4-chlorophenyl)-methyl]-dimethylamine]	77%
COc1ccc(N2CCN(c3oc(C(C4CCC(C(c5ccc(Cl)cc5)N(C)C)CC4)N4CCOCC4)nc3Cc3ccccc3)CC2)cc1 (stereo not shown) [compound 131, [[4-({4-benzyl-5-[4-(4-methoxyphenyl)-piperazin-1-yl]-oxazol-2-yl}-morpholin-4-yl-methyl)-cyclohexyl]-(4-chlorophenyl)-methyl]-dimethylamine]	64%
CC1CN(c2oc(C(C3CCC(C(c4ccc(Cl)cc4)N(C)C)CC3)N3CCOCC3)nc2Cc2ccccc2)CC(C)O1 (stereo not shown) [compound 132, [(4-{[4-benzyl-5-(2,6-dimethylmorpholin-4-yl)-oxazol-2-yl]-morpholin-4-yl-methyl}-cyclohexyl)-(4-chlorophenyl)-methyl]-dimethylamine]	64%
CN(C)C(c1ccc(Cl)cc1)C1CCC(C(c2nc(Cc3ccccc3)c(N3CCCC3)o2)N2CCN(c3ccc(F)cc3)CC2)CC1 (stereo not shown) [compound 133, [(4-{(4-benzyl-5-pyrrolidin-1-yl-oxazol-2-yl)-[4-(4-fluorophenyl)-piperazin-1-yl]-methyl}-cyclohexyl)-(4-chlorophenyl)-methyl]-dimethylamine]	64%
COc1ccc(N2CCN(C(c3nc(Cc4ccccc4)c(N4CCCC4)o3)C3CCC(C(c4ccc(Cl)cc4)N(C)C)CC3)CC2)cc1 (stereo not shown) [compound 134, [(4-{(4-benzyl-5-pyrrolidin-1-yl-oxazol-2-yl)-[4-(4-methoxyphenyl)-piperazin-1-yl]-methyl}-cyclohexyl)-(4-chlorophenyl)-methyl]-dimethylamine]	72%
COc1ccc(N2CCN(C(c3nc(Cc4ccccc4)c(N4CCOCC4)o3)C3CCC(C(c4ccc(Cl)cc4)N(C)C)CC3)CC2)cc1 (stereo not shown) [compound 135, [(4-{(4-benzyl-5-morpholin-4-yl-oxazol-2-yl)-[4-(4-methoxyphenyl)-piperazin-1-yl]-methyl}-cyclohexyl)-(4-chlorophenyl)-methyl]-dimethylamine]	70%
COc1ccc(N2CCN(C(c3nc(Cc4ccccc4)c(N4CC(C)OC(C)C4)o3)C3CCC(C(c4ccc(Cl)cc4)N(C)C)CC3)CC2)cc1 (stereo not shown) [compound 136, [(4-{[4-benzyl-5-(2,6-dimethylmorpholin-4-yl)-oxazol-2-yl]-[4-(4-methoxy-phenyl)-piperazin-1-yl]-methyl}-cyclohexyl)-(4-chlorophenyl)-methyl]-dimethylamine]	62%
CN(C)C(c1ccc(Cl)cc1)C1CCC(C(c2nc(Cc3ccccc3)c(N3CCCC3)o2)N2CCc3ccccc3C2)CC1 (stereo not shown) [compound 137, [{4-[(4-benzyl-5-pyrrolidin-1-yl-oxazol-2-yl)-(3,4-dihydro-1H-isoquinolin-2-yl)-methyl]-cyclohexyl}-(4-chlorophenyl)-methyl]-dimethylamine]	85%
CN(C)C(c1cccs1)C1CCC(C(c2nc(Cc3ccccc3)c(N3CCCC3)o2)N2CCOCC2)CC1 (stereo not shown) [compound 138, ({4-[(4-benzyl-5-pyrrolidin-1-yl-oxazol-2-yl)-morpholin-4-yl-methyl]-cyclohexyl}-thiophen-2-yl-methyl)-dimethylamine]	91%
CN(C)C(c1cccs1)C1CCC(C(c2nc(Cc3ccccc3)c(N3CCOCC3)o2)N2CCOCC2)CC1 (stereo not shown) [compound 139, ({4-[(4-benzyl-5-morpholin-4-yl-oxazol-2-yl)-morpholin-4-yl-methyl]-cyclohexyl}-thiophen-2-yl-methyl)-dimethylamine]	72%
COc1ccc(N2CCN(c3oc(C(C4CCC(C(c5cccs5)N(C)C)CC4)N4CCOCC4)nc3Cc3ccccc3)CC2)cc1 (stereo not shown) [compound 140, {[4-({4-benzyl-5-[4-(4-methoxyphenyl)-piperazin-1-yl]-oxazol-2-yl}-morpholin-4-yl-methyl)-cyclohexyl]-thiophen-2-yl-methyl}-dimethylamine]	67%
CC1CN(c2oc(C(C3CCC(C(c4cccs4)N(C)C)CC3)N3CCOCC3)nc2Cc2ccccc2)CC(C)O1 (stereo not shown) [compound 141, [(4-{[4-benzyl-5-(2,6-dimethylmorpholin-4-yl)-oxazol-2-yl]-morpholin-4-yl-methyl}-cyclohexyl)-thiophen-2-yl-methyl]-dimethylamine]	65%
COc1ccc(N2CCN(C(c3nc(Cc4ccccc4)c(N4CCCC4)o3)C3CCC(C(c4cccs4)N(C)C)CC3)CC2)cc1 (stereo not shown) [compound 143, [(4-{(4-benzyl-5-pyrrolidin-1-yl-oxazol-2-yl)-[4-(4-methoxyphenyl)-piperazin-1-yl]-methyl}-cyclohexyl)-thiophen-2-yl-methyl]-dimethylamine]	77%
COc1ccc(N2CCN(C(c3nc(Cc4ccccc4)c(N4CCOCC4)o3)C3CCC(C(c4cccs4)N(C)C)CC3)CC2)cc1 (stereo not shown) [compound 144, [(4-{(4-benzyl-5-morpholin-4-yl-oxazol-2-yl)-[4-(4-methoxy-phenyl)-piperazin-1-yl]-methyl}-cyclohexyl)-thiophen-2-yl-methyl]-dimethylamine]	64%
COc1ccc(N2CCN(C(c3nc(Cc4ccccc4)c(N4CC(C)OC(C)C4)o3)C3CCC(C(c4cccs4)N(C)C)CC3)CC2)cc1 (stereo not shown) [compound 145, [(4-{[4-benzyl-5-(2,6-dimethylmorpholin-4-yl)-oxazol-2-yl]-[4-(4-methoxy-phenyl)-piperazin-1-yl]-methyl}-cyclohexyl)-thiophen-2-yl-methyl]-dimethylamine]	69%
CN(C)C(c1cccs1)C1CCC(C(c2nc(Cc3ccccc3)c(N3CCCC3)o2)N2CCc3ccccc3C2)CC1 (stereo not shown) [compound 146, ({4-[(4-benzyl-5-pyrrolidin-1-yl-oxazol-2-yl)-(3,4-dihydro-1H-isoquinolin-2-yl)-methyl]-cyclohexyl}-thiophen-2-yl-methyl)-dimethylamine]	92%
